The results in this text go back to publication PMC11057203, “Synergy between Winter Flounder antimicrobial peptides” (npj Antimicrobials and Resistance, 2023).

Non-standard residues stand in square brackets, D forms with d. Residues, ends and D or L forms follow the SMILES beside them.

One assay deals with EMRSA-15 NCTC 13616. The format is cell-based, Staphylococcus aureus. As to the method: (§1) Synergy was measured using standard microdilution Chequerboard assays under the same conditions as the MICs with RPMI140 + 5% FBS used alongside MHB[18]. Twofold dilution series of each peptide or antibiotic were prepared in separate 96 well plates and then combined into one before addition of bacteria. The growth/no growth interface was determined using the same definition as the MIC. The fractional inhibitory concentration was calculated from the most synergistic well on the plate for three independent repeats, and presented as above. MICs were determined on the same plates as the FICs to increase reproducibility.

Another assay relates to P. aeruginosa RP73. Type of assay: cell-based, Pseudomonas aeruginosa. As to the method:
as §1

Assay [1] has as its system Klebsiella pneumoniae NCTC 13368. Type of assay: cell-based. To be noted: Supplementary Table 1; Mueller-Hinton broth; unit inferred.
Method: (§3) The antibacterial activity of the peptides was assessed through a modified two-fold broth microdilution assay with modal MICs generated from at least three biological replicate experiments[37]. The method broadly followed EUCAST methodology, with non-cation adjusted Mueller Hinton replacing cation-adjusted Mueller Hinton. Peptides and antibiotics were diluted in a two-fold dilution in media down a 96 well plate. Bacteria were then added, back-diluted from an overnight culture, at a starting concentration of 5 × 10^5 CFU/ml. Plates were incubated, static at 37 °C, for 20 h and the OD600 was determined using a Clariostar plate reader (BMG Labtech).
Another assay deals with Klebsiella pneumoniae M6. The format is cell-based. To be noted: Supplementary Table 1; Mueller-Hinton broth; unit inferred.
In assay [2] the test system is Acinetobacter baumannii AYE. Type of assay: cell-based. Particulars: Supplementary Table 1; Mueller-Hinton broth; unit inferred.
Method: as §3
For assay [3], the system named is Acinetobacter baumannii ATCC 17978. The format is cell-based. Particulars: Supplementary Table 1; Mueller-Hinton broth; unit inferred.
Method: as §3
The test system of assay [4] is Pseudomonas aeruginosa PAO1. The format is cell-based. To be noted: Supplementary Table 1; Mueller-Hinton broth; unit inferred.
Method: as §3
Assay [5] relates to Pseudomonas aeruginosa NCTC 13437. The format is cell-based. Particulars: Supplementary Table 1; Mueller-Hinton broth; unit inferred.
Method: as §3
In assay [6] the test system is Pseudomonas aeruginosa RP73. Type of assay: cell-based. Particulars: Supplementary Table 1; Mueller-Hinton broth; unit inferred.
Method: as §3
The subject of assay [7] is Escherichia coli NCTC 12923. The format is cell-based. To be noted: Supplementary Table 1; Mueller-Hinton broth; unit inferred.
Method: as §3
For assay [8], the system named is EMR Staphylococcus aureus-15 NCTC 13616. The format is cell-based. To be noted: Supplementary Table 1; Mueller-Hinton broth; unit inferred.
Method: as §3
Assay [9] concerns VS Enterococcus faecalis NCTC 775. Type of assay: cell-based. To be noted: Supplementary Table 1; Mueller-Hinton broth; unit not given.
For assay [10], the system named is VR Enterococcus faecalis NCTC 12201. Type of assay: cell-based. To be noted: Supplementary Table 1; Mueller-Hinton broth; unit inferred.
Method: as §3
Assay [11] concerns VR Enterococcus faecium NCTC 12204. Type of assay: cell-based. To be noted: Supplementary Table 1; Mueller-Hinton broth; unit inferred.
Method: as §3
Assay [12] has as its system Staphylococcus aureus 1199B. Briefly: Broth microdilution MIC. The format is cell-based. To be noted: Supplementary Table 1; Mueller-Hinton broth; unit not given. As to the method:
(§2) The antibacterial activity of the peptides was assessed through a modified two-fold broth microdilution assay with modal MICs generated from at least three biological replicate experiments. The method broadly followed EUCAST methodology, with non-cation adjusted Mueller Hinton replacing cation-adjusted Mueller Hinton. Peptides and antibiotics were diluted in a two-fold dilution in media down a 96 well plate. Bacteria were then added, back-diluted from an overnight culture, at a starting concentration of 5 × 10^5 CFU/ml. Plates were incubated, static at 37 °C, for 20 h and the OD600 was determined using a Clariostar plate reader (BMG Labtech).
On the technique in general: Dilution methods test growth across graded concentrations, often in twofold steps.

In assay [13] the test system is Staphylococcus aureus NCTC 6571. Briefly: Broth microdilution MIC. Type of assay: cell-based. To be noted: Supplementary Table 1; Mueller-Hinton broth; unit not given. As to the method:
as §2

In assay [14] the test system is Staphylococcus aureus USA300. Briefly: Broth microdilution MIC. Type of assay: cell-based. Particulars: Supplementary Table 1; Mueller-Hinton broth; unit not given. As to the method:
as §2

Another assay concerns P. aeruginosa 372261. Briefly: Broth microdilution MIC. Type of assay: cell-based, Pseudomonas aeruginosa. To be noted: Supplementary Table 1; Mueller-Hinton broth; unit not given. As to the method: as §2
In a further assay the test system is P. aeruginosa CAS2. Briefly: Broth microdilution MIC. Particulars: Supplementary Table 1; Mueller-Hinton broth; unit not given. Type of assay: cell-based, Pseudomonas aeruginosa. As to the method: as §2
The next assay concerns P. aeruginosa CAS3. The assay is described as follows: Broth microdilution MIC. Type of assay: cell-based, Pseudomonas aeruginosa. To be noted: Supplementary Table 1; Mueller-Hinton broth; unit not given. As to the method:
as §2

In another assay the test system is P. aeruginosa CAS4. Briefly: Broth microdilution MIC. Type of assay: cell-based, Pseudomonas aeruginosa. Particulars: Supplementary Table 1; Mueller-Hinton broth; unit not given. As to the method:
as §2

Another assay concerns P. aeruginosa GH12. Briefly: Broth microdilution MIC. The format is cell-based, Pseudomonas aeruginosa. Particulars: Supplementary Table 1; Mueller-Hinton broth; unit not given. As to the method:
as §2

For the next assay, the system named is A. baumannii ATCC 17978. Briefly: Galleria mellonella burn wound infection model. Type of assay: in vivo. To be noted: 5 mg/kg, topical 1 h after infection; n = 30 larvae; burn and infection untreated 46.0%.
The subject of the next assay is Gram-negative bacteria. Briefly: Broth microdilution MIC, Gram-negative panel. Type of assay: cell-based. Particulars: Mueller–Hinton broth; span of Table 2 Gram-negative isolates. As to the method:
as §2

Method for A. baumannii ATCC 17978: Prior to use, G. mellonella were surface decontaminated by immersion in 50% ethanol for 20 s and allowed to dry. All assays were performed on three separate occasions using a group size of 10 larvae; the larvae were kept in separate petri dishes and in the dark in a static incubator at 37 °C for the duration of the experiment. Fresh agar plates of A. baumannii ATCC 17978 were prepared immediately prior to the experiment. Larvae were burnt using the flat head of a nail which was heated in a blue Bunsen burner flame until red hot, cooled for 15 s and superficially applied for 2 s to generate a 2 mm^2 burn. Larvae were infected with a single colony of A. baumannii ATCC 17978 applied directly to the burn site. Treatment was applied topically 1 h after infection in a volume of 5 µl or sterile phosphate buffered saline as a control. Survival was monitored over 96 h.
Method for Klebsiella pneumoniae M6: as §3

Consider `CC[C@@H](C)[C@@H](NC(=O)[C@@H](CCCNC(=N)N)NC(=O)[C@@H](CCCNC(=N)N)NC(=O)[C@@H](CC(C)C)NC(=O)[C@H](N)Cc1c[nH]c2ccccc12)C(=O)NCC(=O)N[C@H](CCCCN)C(=O)NCC(=O)N[C@@H](C(=O)N[C@H](CCCCN)C(=O)N[C@@H](C(=O)N[C@@H](C(=O)NCC(=O)NCC(=O)N[C@H](C)C(=O)N[C@H](C)C(=O)N[C@H](CC(C)C)C(=O)N[C@H](CC(=O)O)C(=O)N[C@H](Cc1c[nH]cn1)C(=O)N[C@H](CC(C)C)C(N)=O)[C@H](C)CC)[C@H](C)CC)C(C)C` [D-WF1a] (H-[dW][dL][dR][dR][dI]G[dK]G[dV][dK][dI][dI]GG[dA][dA][dL][dD][dH][dL]-NH2; N-terminus assumed), for which the “D-WF1a MIC (alone)” value with EMRSA-15 NCTC 13616 and in the assay with P. aeruginosa RP73 was 512 µg/mL throughout.

For the compound `CC(C)C[C@@H](NC(=O)[C@@H](Cc1ccc(O)cc1)NC(=O)[C@@H](Cc1c[nH]cn1)NC(=O)[C@H](NC(=O)[C@@H](CC(C)C)NC(=O)[C@@H](C)NC(=O)[C@@H](C)NC(=O)[C@@H](CCCNC(=N)N)NC(=O)CNC(=O)[C@H](NC(=O)[C@@H](Cc1c[nH]cn1)NC(=O)[C@@H](CCCNC(=N)N)NC(=O)CNC(=O)[C@H](NC(=O)[C@@H](Cc1c[nH]cn1)NC(=O)[C@@H](C)NC(=O)[C@@H](C)NC(=O)[C@@H](CCCNC(=N)N)NC(=O)[C@@H](CCCNC(=N)N)NC(=O)[C@@H](Cc1ccccc1)NC(=O)[C@@H](Cc1ccccc1)NC(=O)[C@@H](CO)NC(=O)CNC(=O)[C@@H](Cc1c[nH]c2ccccc12)NC(=O)CN)C(C)C)C(C)C)[C@H](C)O)C(N)=O` [D-pleurocidin-KR] (H-G[dW]G[dS][dF][dF][dR][dR][dA][dA][dH][dV]G[dR][dH][dV]G[dR][dA][dA][dL][dT][dH][dY][dL]-NH2; N-terminus assumed), the “Pleurocidin MIC (analogue alone)” value in the assay on EMRSA-15 NCTC 13616 is listed as 2 µg/ml; with P. aeruginosa RP73, 8-16 µg/ml.

As for `CC(C)C[C@@H](NC(=O)[C@@H](Cc1ccc(O)cc1)NC(=O)[C@@H](Cc1c[nH]cn1)NC(=O)[C@H](NC(=O)[C@@H](CC(C)C)NC(=O)[C@@H](C)NC(=O)[C@@H](C)NC(=O)[C@@H](CCCCN)NC(=O)CNC(=O)[C@H](NC(=O)[C@@H](Cc1c[nH]cn1)NC(=O)[C@@H](CCCCN)NC(=O)CNC(=O)[C@H](NC(=O)[C@@H](Cc1c[nH]cn1)NC(=O)[C@@H](C)NC(=O)[C@@H](C)NC(=O)[C@@H](CCCCN)NC(=O)[C@@H](CCCCN)NC(=O)[C@@H](Cc1ccccc1)NC(=O)[C@@H](Cc1ccccc1)NC(=O)[C@@H](CO)NC(=O)CNC(=O)[C@@H](Cc1c[nH]c2ccccc12)NC(=O)CN)C(C)C)C(C)C)[C@H](C)O)C(N)=O` [D-pleurocidin] (H-G[dW]G[dS][dF][dF][dK][dK][dA][dA][dH][dV]G[dK][dH][dV]G[dK][dA][dA][dL][dT][dH][dY][dL]-NH2; N-terminus assumed), in assay [1], the Antimicrobial activity of D-enantiomers, Klebsiella pneumoniae NCTC 13368 is 2 µg/mL. The same compound showed an Antimicrobial activity of D-enantiomers, Klebsiella pneumoniae M6 with Klebsiella pneumoniae M6 of 2 µg/mL. Also, the Antimicrobial activity of D-enantiomers, Acinetobacter baumannii AYE in assay [2] amounted to 2 µg/mL. In [3], this compound had an Antimicrobial activity of D-enantiomers, Acinetobacter baumannii ATCC 17978 of 1 µg/mL. The Antimicrobial activity of D-enantiomers, Pseudomonas aeruginosa PAO1 in assay [4] stood at 2 µg/mL. Further, the Antimicrobial activity of D-enantiomers, Pseudomonas aeruginosa NCTC 13437 in [5] is 8 µg/mL. The same compound came in with an Antimicrobial activity of D-enantiomers, P. aeruginosa RP73 in assay [6] of 16 µg/mL. Besides, the Antimicrobial activity of D-enantiomers, Escherichia coli NCTC 12923 in assay [7] was 1 µg/mL. For the same compound, the Antimicrobial activity of D-enantiomers, EMR Staphylococcus aureus-15 NCTC 13616 in [8] is 16 µg/mL. For the same compound, the “Antimicrobial activity of D-enantiomers, VS Enterococcus faecalis NCTC 775” value in assay [9] was 16. In [10], this compound returned an Antimicrobial activity of D-enantiomers, VR Enterococcus faecalis NCTC 12201 of 64 µg/mL. The same compound registered an Antimicrobial activity of D-enantiomers, VR Enterococcus faecium NCTC 12204 in assay [11] of 16 µg/mL. Also, the “Antimicrobial activity of D-enantiomers, Staphylococcus aureus 1199B” value in assay [12] is 16. Moreover, the “Antimicrobial activity of D-enantiomers, Staphylococcus aureus NCTC 6571” value in [13] is on record as 16. In addition, the “Antimicrobial activity of D-enantiomers, Staphylococcus aureus USA300” value in [14] is on record as 32. Further, the “Antimicrobial activity of D-enantiomers, P. aeruginosa 372261” value in the assay with P. aeruginosa 372261 is reported as 4. In addition, the “Antimicrobial activity of D-enantiomers, P. aeruginosa CAS2” value in the assay with P. aeruginosa CAS2 stood at 8. Also, in the assay with P. aeruginosa CAS3, the “Antimicrobial activity of D-enantiomers, P. aeruginosa CAS3” value was 4. Moreover, the “Antimicrobial activity of D-enantiomers, P. aeruginosa CAS4” value in the assay with P. aeruginosa CAS4 is 8. The “Antimicrobial activity of D-enantiomers, P. aeruginosa GH12” value in the assay on P. aeruginosa GH12 amounted to 4. Further, the “Pleurocidin MIC (analogue alone)” value in the assay with EMRSA-15 NCTC 13616 and in the assay on P. aeruginosa RP73 was 8-16 µg/ml each time.

Turning to `CNC(C)C1CCC(N)C(OC2C(N)CC(N)C(OC3OCC(C)(O)C(NC)C3O)C2O)O1` (stereo not drawn) [Gentamicin], the “Survival % @ 96 h” value in the assay on A. baumannii ATCC 17978 came to 86.7%.

With `C[C@@H](O)[C@H]1C(=O)N2C(C(=O)O)=C(SCCN=CN)C[C@H]12` [Imipenem], the “Survival % @ 96 h” value with A. baumannii ATCC 17978 amounted to 70.0%.

Take `C[C@@H](O)[C@H]1C(=O)N2C(C(=O)O)=C(S[C@@H]3CN[C@H](C(=O)N(C)C)C3)[C@H](C)[C@H]12` [Meropenem]: in the assay with A. baumannii ATCC 17978, the “Survival % @ 96 h” value is 70.0%.

For `CC[C@H](C)[C@H](NC(=O)[C@H](CCCNC(=N)N)NC(=O)[C@H](CCCNC(=N)N)NC(=O)[C@H](CC(C)C)NC(=O)[C@H](Cc1c[nH]c2ccccc12)NC(=O)[C@H](CCCCN)NC(=O)[C@H](CCCNC(=N)N)NC(=O)[C@H](CCCCN)NC(=O)[C@H](CCCNC(=N)N)NC(=O)[C@H](CCCNC(=N)N)NC(=O)CN)C(=O)NCC(=O)N[C@@H](CCCCN)C(=O)NCC(=O)N[C@H](C(=O)N[C@@H](CCCCN)C(=O)N[C@H](C(=O)N[C@H](C(=O)NCC(=O)NCC(=O)N[C@@H](C)C(=O)N[C@@H](C)C(=O)N[C@@H](CC(C)C)C(=O)N[C@@H](CC(=O)O)C(=O)N[C@@H](Cc1c[nH]cn1)C(=O)N[C@@H](CC(C)C)C(N)=O)[C@@H](C)CC)[C@@H](C)CC)C(C)C` [WF1a-1] (H-GRRKRKWLRRIGKGVKIIGGAALDHL-NH2), the “MICs against Gram-negative isolates (range over panel)” value against Gram-negative bacteria fell in the range of 0.25 to 8 µg/mL.
